Measured values from patent publication US20260272924A1, “ISOINDOLINE DERIVATIVE, BENZOINDOLE DERIVATIVE AND USE THEREOF” (SHANGHAI HELIOSON PHARMACEUTICAL CO., LTD., priority 2023, published 2026).

system: NCI-H929 multiple myeloma cells; test: Cell Titer-GLO (CTG) assay for proliferation of NCI-H929 cells; assay type: cell-based; conditions: Homo sapiens, 72 hours
Description: 1. Experimental objective: To determine inhibitory activities of compounds on NCI-H929 multiple myeloma cells.
NCI-H929 cells, purchased from Nanjing Cobioer Biotechnology Co., Ltd, were cultured in RPM11640 (Viva; C3010-0500) medium containing 10% fetal bovine serum (Viva, C04002-500) and 1% of penicillin-streptomycin at 37° C. with 5% of C02 and saturated humidity conditions.
The cells in logarithmic growth phase were plated at 5000 cells per well of a 96-well plate and after overnight incubation, compounds at 0.00512 nM, 0.0256 nM, 0.128 nM, 0.64 nM, 3.2 nM, 16 nM, 80 nM, and 400 nM were dosed into the plate with each dose in 2 duplicate wells. Cells were incubated at 37° C., 5% CO2 for 72 hours. After the incubation, the plate was placed at room temperature for half an hour, and then 50 μL of Cell Titer-Glo® (Promega, G7573) was added. The plate was placed on a shaker for uniform mixing for 2 minutes and was placed in the dark at room temperature for 10 minutes. The luminance signal was measured using SpectraMax Paradigm (Molecular Devices).
Cell activity inhibition rate (%)=1 00−(RLUcompound−RLUblank)/(RLUcontrol−RLUblank)×100%, where control refers to the 0.1% DMSO treatment group, and blank refers to the culture medium control. IC50 values and maximum inhibition rates of the compounds were calculated using a nonlinear regression function “Dose-Response-Inhibition” in Graphpad Prism 7.0.

| IC50 [nM] | SMILES |
| --- | --- |
| 0.02 | Cc1nnc(-c2cccc(N3CCN(Cc4ccc(Cc5ccc6c7c(cccc57)C(=O)N6[C@@H]5CCC(=O)NC5=O)cc4)CC3)n2)s1 [Example 36, (R)-3-(6-(4-((4-(6-(5-methyl-1,3,4-thiadiazol-2-yl)pyridin-2-yl)piperazin-1-yl)methyl)benzyl)-2-oxobenzo[cd]indol-1(2H)-yl)piperidin-2,6-dione] |
| 0.03 | Cc1ncn(-c2cccc(N3CCN(Cc4ccc(Cc5ccc6c7c(cccc57)C(=O)N6[C@@H]5CCC(=O)NC5=O)cc4)CC3)n2)n1 [Example 38, (R)-3-(6-(4-((4-(6-(3-methyl-1H-1,2,4-triazol-1-yl)pyridin-2-yl)piperazin-1-yl)methyl)benzyl)-2-oxobenzo[cd]indol-1(2H)-yl)piperidin-2,6-dione] |
| 0.01 | O=C1CCC(N2C(=O)c3cccc4c(Cc5ccc(CN6CCN(c7ccnc(-n8cnc(C(F)(F)F)n8)n7)CC6)cc5)ccc2c34)C(=O)N1 (centres unmarked) [Example 39, 3-(2-oxo-6-(4-((4-(2-(3-(trifluoromethyl)-1H-1,2,4-triazol-1-yl)pyrimidin-4-yl)piperazin-1-yl)methyl)benzyl)benzo[cd]indol-1(2H)-yl)piperidin-2,6-dione] |
| 0.01 | O=C1CCC(N2C(=O)c3cccc4c(Cc5ccc(CN6CCN(C7CCN(c8ccnc(-n9cnc(C(F)(F)F)c9)n8)CC7)CC6)cc5)ccc2c34)C(=O)N1 (centres unmarked) [Example 40, 3-(2-oxo-6-(4-((4-(1-(2-(4-(trifluoromethyl)-1H-imidazol-1-yl)pyrimidin-4-yl)piperidin-4-yl)piperazin-1-yl)methyl)benzyl)benzo[cd]indol-1(2H)-yl)piperidin-2,6-dione] |
| 0.006 | Cc1ncn(-c2nccc(N3CCN(Cc4ccc(Cc5ccc6c7c(cccc57)C(=O)N6C5CCC(=O)NC5=O)cc4)CC3)n2)n1 (centres unmarked) [Example 41, 3-(6-(4-((4-(2-(3-methyl-1H-1,2,4-triazol-1-yl)pyrimidin-4-yl)piperazin-1-yl)methyl)benzyl)-2-oxobenzo[cd]indol-1(2H)-yl)piperidin-2,6-dione] |
| 0.01 | Cc1nnc(-c2ncc(F)c(N3CCN(Cc4ccc(Cc5ccc6c7c(cccc57)C(=O)N6C5CCC(=O)NC5=O)cc4)CC3)n2)s1 (centres unmarked) [Example 42, 3-(6-(4-((4-(5-fluoro-2-(5-methyl-1,3,4-thiadiazol-2-yl)pyrimidin-4-yl)piperazin-1-yl)methyl)benzyl)-2-oxobenzo[cd]indol-1(2H)-yl)piperidin-2,6-dione] |
| 0.02 | O=C1CCC(N2C(=O)c3cccc4c(Cc5ccc(CN6CCN(c7ccnc(-n8cnc(Cl)c8)n7)CC6)cc5)ccc2c34)C(=O)N1 (centres unmarked) [Example 43, 3-(6-(4-((4-(2-(4-chloro-1H-imidazol-1-yl)pyrimidin-4-yl)piperazin-1-yl)methyl)benzyl)-2-oxobenzo[cd]indol-1(2H)-yl)piperidin-2,6-dione] |
| 0.01 | N#Cc1cn(-c2nccc(N3CCN(Cc4ccc(Cc5ccc6c7c(cccc57)C(=O)N6C5CCC(=O)NC5=O)cc4)CC3)n2)cn1 (centres unmarked) [Example 44, 3-(6-(4-((4-(2-(4-cvano-1H-imidazol-1-yl)pyrimidin-4-yl)piperazin-1-yl)methyl)benzyl)-2-oxobenzo[cd]indol-1(2H)-yl)piperidin-2,6-dione] |
| 0.01 | Cc1ncn(-c2ncc(Cl)c(N3CCN(Cc4ccc(Cc5ccc6c7c(cccc57)C(=O)N6C5CCC(=O)NC5=O)cc4)CC3)n2)n1 (centres unmarked) [Example 45, 3-(6-(4-((4-(5-chloro-2-(3-methyl-1H-1,2,4-triazol-1-yl)pyrimidin-4-yl)piperazin-1-yl)methyl)benzyl)-2-oxobenzo[cd]indol-1(2H)-yl)piperidin-2,6-dione] |
| 0.01 | Cc1nc(N2CCN(Cc3ccc(Cc4ccc5c6c(cccc46)C(=O)N5[C@H]4CCC(=O)NC4=O)cc3)CC2)cc(-n2cnc(C)n2)n1 [Example 46, (S)-3-(6-(4-((4-(2-methyl-6-(3-methyl-1H-1,2,4-triazol-1-yl)pyrimidin-4-yl)piperazin-1-yl)methyl)benzyl)-2-oxobenzo[cd]indol-1(2H)-yl)piperidin-2,6-dione] |
| 0.002 | Cc1nc(N2CCN(C3CN(Cc4ccc(Cc5ccc6c7c(cccc57)C(=O)N6C5CCC(=O)NC5=O)cc4)C3)CC2)cc(-n2cnc(C)n2)n1 (centres unmarked) [Example 48, 3-(6-(4-((3-(4-(2-methyl-6-(3-methyl-1H-1,2,4-triazol-1-yl)pyrimidin-4-yl)piperazin-1-yl)azetidin-1-yl)methyl)benzyl)-2-oxobenzo[cd]indol-1(2H)-yl)piperidin-2,6-dione] |
| 0.003 | Cc1ncn(-c2ncc(F)c(N3CCN(C4CN(Cc5ccc(Cc6ccc7c8c(cccc68)C(=O)N7C6CCC(=O)NC6=O)cc5)C4)CC3)n2)n1 (centres unmarked) [Example 49, 3-(6-(4-((3-(4-(5-fluoro-2-(3-methyl-1H-1,2,4-triazol-1-yl)pyrimidin-4-yl)piperazin-1-yl)azetidin-1-yl)methyl)benzyl)-2-oxobenzo[cd]indol-1(2H)-yl)piperidin-2,6-dione] |
| 0.01 | Cc1nc(N2CCN(Cc3ccc(Cc4ccc5c6c(cccc46)C(=O)N5C4CCC(=O)NC4=O)cc3)CC2)cc(-n2cnc(Cl)c2)n1 (centres unmarked) [Example 50, 3-(6-(4-((4-(6-(-4-chloro-1H-imidazol-1-yl)-2-methylpyrimidin-4-yl)piperazin-1-yl)methyl)benzyl)-2-oxobenzo[cd]indol-1(2H)-yl)piperidin-2,6-dione] |
| 0.01 | Cc1nc(N2CCN(Cc3ccc(Cc4ccc5c6c(cccc46)C(=O)N5C4CCC(=O)NC4=O)cc3)CC2)cc(-n2cnc(C#N)c2)n1 (centres unmarked) [Example 51, 3-(6-(4-((4-(6-(-4-cyano-1H-imidazol-1-yl)-2-methylpyrimidin-4-yl)piperazin-1-yl)methyl)benzyl)-2-oxobenzo[cd]indol-1(2H)-yl)piperidin-2,6-dione] |
| 0.01 | Cc1ncn(-c2nc(N3CCN(C4CN(Cc5ccc(Cc6ccc7c8c(cccc68)C(=O)N7C6CCC(=O)NC6=O)cc5)C4)CC3)cc(C(F)(F)F)n2)n1 (centres unmarked) [Example 52, 3-(6-(4-((3-(4-(2-(3-methyl-1H-1,2,4-triazol-1-yl)-6-(trifluoromethyl)pyrimidin-4-yl)piperazin-1-yl)azetidin-1-yl)methyl)benzyl)-2-oxobenzo[cd]indol-1(2H)-yl)piperidin-2,6-dione] |
| 0.003 | Cc1ncn(-c2cccc(N3CCN(C4CN(Cc5ccc(Cc6ccc7c8c(cccc68)C(=O)N7C6CCC(=O)NC6=O)cc5)C4)CC3)n2)n1 (centres unmarked) [Example 53, 3-(6-(4-((3-(4-(6-(3-methyl-1H-1,2,4-triazol-1-yl)pyridin-2-yl)piperazin-1-yl)azetidin-1-yl)methyl)benzyl)-2-oxobenzo[cd]indol-1(2H)-yl)piperidin-2,6-dione] |
| 0.004 | Cc1nc(N2CCN(C3CN(Cc4ccc(Cc5ccc6c7c(cccc57)C(=O)N6C5CCC(=O)NC5=O)cc4)C3)CC2)cc(-n2cnc(C(F)(F)F)c2)n1 (centres unmarked) [Example 54, 3-(6-(4-((3-(4-(2-methyl-6-(4-(trifluoromethyl)-1H-imidazol-1-yl)pyrimidin-4-yl)piperazin-1-yl)azetidin-1-yl)methyl)benzyl)-2-oxobenzo[cd]indol-1(2H)-yl)piperidin-2,6-dione] |
| 0.2 | O=C1CCC(N2C(=O)c3cccc4c(Cc5ccc(CN6CC(CN7CCN(c8cccc(-n9ccnc9)n8)CC7)C6)cc5)ccc2c34)C(=O)N1 (centres unmarked) [Example 55, 3-(6-(4-((3-((4-(6-(1H-imidazol-1-yl)pyridin-2-yl)piperazin-1-yl)methyl)azetidin-1-yl)methyl)benzyl)-2-oxobenzo[cd]indol-1(2H)-yl)piperidin-2,6-dione] |
| 0.1 | O=C1CCC(N2C(=O)c3cccc4c(Cc5ccc(CN6CCN(c7cc(C(F)(F)F)nc(-n8cnc(C(F)(F)F)c8)n7)CC6)cc5)ccc2c34)C(=O)N1 (centres unmarked) [Example 56, 3-(2-oxo-6-(4-((4-(6-(trifluoromethyl)-2-(4-(trifluoromethyl)-1H-imidazol-1-yl)pyrimidin-4-yl)piperazin-1-yl)methyl)benzyl)benzo[cd]indol-1(2H)-yl)piperidin-2,6-dione] |
| 0.1 | NC(=O)c1cn(-c2cccc(N3CCN(Cc4ccc(COc5cccc6c5CN([C@H]5CCC(=O)NC5=O)C6=O)cc4)CC3)n2)cn1 [Example 57, (S)-1-(6-(4-(4-(((2-(2,6-dioxopiperidin-3-yl)-1-oxoisoindolin-4-yl)oxy)methyl)benzyl)piperazin-1-yl)pyridin-2-yl)-1H-imidazol-4-carboxamide] |
| 0.03 | O=C1CCC(N2C(=O)c3cccc4c(Cc5ccc(CN6CCN(c7ccnc(-c8cncs8)n7)CC6)cc5)ccc2c34)C(=O)N1 (centres unmarked) [Example 58, 3-(2-oxo-6-(4-((4-(2-(thiazol-5-yl)pyrimidin-4-yl)piperazin-1-yl)methyl)benzyl)benzo[fcd]indol-1(2H)-yl)piperidin-2,6-dione] |
| 0.2 | O=C1CCC(N2C(=O)c3cccc4c(Cc5ccc(CN6CCN(c7cc(C(F)(F)F)nc(-c8cncs8)n7)CC6)cc5)ccc2c34)C(=O)N1 (centres unmarked) [Example 59, 3-(2-oxo-6-(4-((4-(2-(thiazol-5-yl)-6-(trifluoromethyl)pyrimidin-4-yl)piperazin-1-yl)methyl)benzyl)benzo[cd]indol-1(2H)-yl)piperidin-2,6-dione] |
| 0.03 | O=C1CCC(N2C(=O)c3cccc4c(Cc5ccc(CN6CCN(c7nc(-c8cncs8)ncc7F)CC6)cc5)ccc2c34)C(=O)N1 (centres unmarked) [Example 60, 3-(6-(4-((4-(5-fluoro-2-(thiazol-5-yl)pyrimidin-4-yl)piperazin-1-yl)methyl)benzyl)-2-oxobenzo[cd]indol-1(2H)-yl)piperidin-2,6-dione] |
